Measured values: ChEMBL document CHEMBL2331426, “A formyl peptide substituted with a conformationally constrained phenylalanine residue evokes a selective immune response in human neutrophils” (Bioorg Med Chem, 2013)
Active and inactive are the calls of the source. The rule behind the calls is not given here.

Tests used:
[1] = target: T1, fMet-Leu-Phe receptor 1/2 (Homo sapiens, UniProt P21462+P25090); test: Agonist activity at FPR1/FPR2 receptor in human neutrophils assessed as induction of superoxide radical generation by spectrophotometric analysis
T1 sequence (P21462 whole entry): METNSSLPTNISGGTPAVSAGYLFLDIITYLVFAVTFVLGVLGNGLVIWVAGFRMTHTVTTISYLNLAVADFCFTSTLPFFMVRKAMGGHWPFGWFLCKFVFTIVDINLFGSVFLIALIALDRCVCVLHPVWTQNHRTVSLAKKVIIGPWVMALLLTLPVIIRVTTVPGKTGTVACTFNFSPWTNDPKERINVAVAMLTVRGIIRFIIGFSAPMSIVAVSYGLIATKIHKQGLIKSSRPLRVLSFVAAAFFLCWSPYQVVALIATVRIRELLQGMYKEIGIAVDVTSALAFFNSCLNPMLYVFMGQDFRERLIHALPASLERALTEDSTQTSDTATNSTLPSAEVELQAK
T1 sequence (P25090 whole entry): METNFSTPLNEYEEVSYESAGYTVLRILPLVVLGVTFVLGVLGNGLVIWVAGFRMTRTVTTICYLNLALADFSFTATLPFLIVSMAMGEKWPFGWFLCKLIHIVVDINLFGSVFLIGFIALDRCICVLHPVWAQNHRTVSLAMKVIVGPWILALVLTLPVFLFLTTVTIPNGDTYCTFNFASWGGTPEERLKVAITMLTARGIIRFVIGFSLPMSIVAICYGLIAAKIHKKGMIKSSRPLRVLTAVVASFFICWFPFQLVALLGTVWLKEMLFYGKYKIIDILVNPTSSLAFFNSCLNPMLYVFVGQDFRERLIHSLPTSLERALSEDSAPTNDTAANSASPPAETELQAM

[2] = target: T1, fMet-Leu-Phe receptor 1/2; test: Agonist activity at FPR1/FPR2 receptor in human neutrophils assessed as induction of chemotaxis after 60 mins
[3] = target: T2, fMet-Leu-Phe receptor 1/2 (Homo sapiens) (UniProt P21462+P25090); test: Agonist activity at FPR1/FPR2 receptor in human neutrophils assessed as increase in intracellular calcium concentration at 0.1 uM by Fura-2-based spectrofluorophotometric analysis; format: functional, cell-based
[4] = target: T3, N-formyl peptide receptor 2 (Homo sapiens) (UniProt P25090); test: Binding affinity to FPR2 receptor in human neutrophils assessed as induction of intracellular calcium mobilization at 1 uM in presence of MMK-1; format: functional, cell-based
T3 sequence (whole entry): T1 sequence (P25090 whole entry)

[5] = target: T2, fMet-Leu-Phe receptor 1/2 (Homo sapiens); test: Agonist activity at FPR1/FPR2 receptor in human neutrophils assessed as stimulation of fMLP-OMe-induced superoxide radical generation at 0.1 uM incubated for 5 mins followed by fMLP-OMe induction by spectrophotometric analysis relative to control
[6] = target: T2, fMet-Leu-Phe receptor 1/2 (Homo sapiens); test: Agonist activity at FPR1/FPR2 receptor in human neutrophils assessed as induction of superoxide radical generation at 1 uM by spectrophotometric analysis
[7] = target: T2, fMet-Leu-Phe receptor 1/2 (Homo sapiens); test: Agonist activity at FPR1/FPR2 receptor in human neutrophils assessed as induction of chemotaxis after 60 mins relative to fMLP-OMe
[8] = target: T2, fMet-Leu-Phe receptor 1/2 (Homo sapiens); test: Agonist activity at FPR1/FPR2 receptor in human neutrophils assessed as induction of superoxide radical generation at 1 uM by […] spectrophotometric analysis relative to fMLP-OMe
[9] = target: T2, fMet-Leu-Phe receptor 1/2 (Homo sapiens); test: Agonist activity at FPR1/FPR2 receptor in human neutrophils assessed as increase in intracellular calcium concentration by spectrofluorophotometric analysis; format: functional, cell-based

EC50 [1] [nM]	EC50 [2] [nM]	Activity [3]	Activity [4]	Activity [5] [%]	Activity [6] [%]	Activity [7] [%]	Activity [8] [%]	Activity [9]	SMILES
16	2.5	Active							COC(=O)[C@H](Cc1ccccc1)NC(=O)[C@H](CC(C)C)NC(=O)[C@H](CCSC)NC=O
	4.7	Active	inactive	114	10	53			COC(=O)[C@@]1(NC(=O)[C@H](CC(C)C)NC(=O)[C@H](CCSC)NC=O)C[C@H]1c1ccccc1
	21	Active	Active	175	10	12	45		COC(=O)[C@]1(NC(=O)[C@H](CC(C)C)NC(=O)[C@H](CCSC)NC=O)C[C@H]1c1ccccc1
								Active	CSCC[C@H](NC(=O)[C@H](Cc1ccc(O)cc1)NC(=O)[C@H](CCCCN)NC(=O)[C@@H](N)Cc1c[nH]c2ccccc12)C(=O)N[C@H](C(=O)N[C@H](CCSC)C(=O)O)C(C)C
250	9.1	Active	Active	200		26	6.4		CSCC[C@H](NC=O)C(=O)N[C@@H](CC(C)C)C(=O)N[C@]1(C(=O)O)C[C@@H]1c1ccccc1
	14	Active	inactive	114	10	18			COC(=O)[C@]1(NC(=O)[C@H](CC(C)C)NC(=O)[C@H](CCSC)NC=O)C[C@@H]1c1ccccc1
